Measurements taken from PubChem BioAssay (NCI).
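A five-concentration, 48-hour dose response in 96-well plates underlies each endpoint, interpolated linearly between surrounding concentrations. Here, GI50 denotes the concentration required for 50% inhibition of growth. The concentration for full growth arrest is given as TGI.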

How the values were obtained:
Experiment in all cases: inhibition of tumour cell growth, NCI panel, 48 h
[1] = tested on: UO-31 renal
[2] = tested on: DU-145 prostate
[3] = tested on: BT-549 breast
[4] = tested on: 786-0 renal
[5] = tested on: MALME-3M melanoma
[6] = tested on: MCF7 breast
[7] = tested on: SF-268 CNS
[8] = tested on: SN12C renal
[9] = tested on: OVCAR-5 ovarian
[10] = tested on: HCC-2998 colon
[11] = tested on: TK-10 renal
[12] = tested on: HCT-15 colon
[13] = tested on: MDA-MB-231 breast
[14] = tested on: SK-MEL-5 melanoma
[15] = tested on: OVCAR-3 ovarian
[16] = tested on: IGROV1 ovarian
[17] = tested on: HS 578T breast
[18] = tested on: CAKI-1 renal
[19] = tested on: UACC-257 melanoma
[20] = tested on: U251 CNS
[21] = tested on: SR leukemia
[22] = tested on: A549 NSCLC
[23] = tested on: COLO 205 colon
[24] = tested on: SF-295 CNS
[25] = tested on: T-47D breast
[26] = tested on: SF-539 CNS
[27] = tested on: PC-3 prostate
[28] = tested on: K-562 leukemia
[29] = tested on: SK-MEL-2 melanoma
[30] = tested on: SW-620 colon
[31] = tested on: RPMI-8226 leukemia
[32] = tested on: RXF 393 renal
[33] = tested on: CCRF-CEM leukemia
[34] = tested on: A498 renal
[35] = tested on: SNB-75 CNS
[36] = tested on: OVCAR-4 ovarian
[37] = tested on: ACHN renal
[38] = tested on: UACC-62 melanoma
[39] = tested on: SK-MEL-28 melanoma
[40] = tested on: HOP-92 NSCLC
[41] = tested on: MOLT-4 leukemia
[42] = tested on: NCI-H460 lung
[43] = tested on: HL-60(TB) leukemia
[44] = tested on: M14 melanoma
[45] = tested on: HT29 colon
[46] = tested on: NCI/ADR-RES ovarian
[47] = tested on: SNB-19 CNS
[48] = tested on: EKVX NSCLC
[49] = tested on: HOP-62 NSCLC
[50] = tested on: SK-OV-3 ovarian
[51] = tested on: NCI-H226 lung

Structure (SMILES): COc1ccc2[nH]cc(-c3csc4nc(-c5ccccc5)cn34)c2c1
- GI50 [1]: 465 nM
- TGI [1]: 32000 nM
- GI50 [2]: 576 nM
- TGI [2]: > 100000 nM
- GI50 [3]: 508 nM
- TGI [3]: 4800 nM
- GI50 [4]: 599 nM
- TGI [4]: > 19900 nM
- GI50 [5]: 492 nM
- TGI [5]: 31800 nM
- GI50 [6]: 276 nM
- TGI [6]: > 100000 nM
- GI50 [7]: 823 nM
- TGI [7]: > 80800 nM
- GI50 [8]: 470 nM
- TGI [8]: > 100000 nM
- GI50 [9]: 709 nM
- TGI [9]: > 100000 nM
- GI50 [10]: 602 nM
- TGI [10]: 3750 nM
- GI50 [11]: 6970 nM
- TGI [11]: 42600 nM
- GI50 [12]: 242 nM
- TGI [12]: > 23100 nM
- GI50 [13]: 524 nM
- TGI [13]: > 100000 nM
- GI50 [14]: 407 nM
- TGI [14]: 3640 nM
- GI50 [15]: 355 nM
- TGI [15]: 3320 nM
- GI50 [16]: 477 nM
- TGI [16]: > 100000 nM
- GI50 [17]: 328 nM
- TGI [17]: 10300 nM
- GI50 [18]: 404 nM
- TGI [18]: 12100 nM
- GI50 [19]: 525 nM
- TGI [19]: > 100000 nM
- GI50 [20]: 401 nM
- GI50 [21]: 66 nM
- TGI [21]: > 100000 nM
- GI50 [22]: 891 nM
- TGI [22]: > 88400 nM
- GI50 [23]: 334 nM
- TGI [23]: 1150 nM
- GI50 [24]: 395 nM
- TGI [24]: 4240 nM
- GI50 [25]: 382 nM
- TGI [25]: > 100000 nM
- GI50 [26]: 359 nM
- TGI [26]: 1830 nM
- GI50 [27]: 412 nM
- TGI [27]: > 100000 nM
- GI50 [28]: 139 nM
- TGI [28]: > 100000 nM
- GI50 [29]: 291 nM
- TGI [29]: 851 nM
- GI50 [30]: 360 nM
- TGI [30]: > 100000 nM
- GI50 [31]: 416 nM
- TGI [31]: 3860 nM
- GI50 [32]: 553 nM
- TGI [32]: 4770 nM
- GI50 [33]: 248 nM
- TGI [33]: > 100000 nM
- GI50 [34]: 3730 nM
- GI50 [35]: 240 nM
- TGI [35]: 779 nM
- GI50 [36]: 2220 nM
- TGI [36]: > 100000 nM
- GI50 [37]: 612 nM
- TGI [37]: 20600 nM
- GI50 [38]: 327 nM
- TGI [38]: 20800 nM
- GI50 [39]: 724 nM
- TGI [39]: > 90200 nM
- GI50 [40]: 424 nM
- TGI [40]: 5300 nM
- GI50 [41]: 440 nM
- TGI [41]: > 51900 nM
- GI50 [42]: 374 nM
- TGI [42]: 2530 nM
- GI50 [43]: 287 nM
- TGI [43]: > 100000 nM
- GI50 [44]: 295 nM
- TGI [44]: > 100000 nM
- GI50 [45]: 324 nM
- TGI [45]: 1120 nM
- GI50 [46]: 252 nM
- TGI [46]: 1320 nM
- GI50 [47]: 616 nM
- TGI [47]: > 100000 nM
- GI50 [48]: 804 nM
- TGI [48]: > 100000 nM
- GI50 [49]: 579 nM
- TGI [49]: 19100 nM
- GI50 [50]: 489 nM
- TGI [50]: > 43900 nM
- GI50 [51]: 947 nM
- TGI [51]: 5760 nM
